Data as given in US10500158B2, “Cationic lipid” (Kyowa Hakko Kirin Co., Ltd., priority 2014, dated 2019).

Legend:
factor VII gene = test: Test Example 1: in vivo drug efficacy evaluation, factor VII protein concentration in plasma after i.v. administration of f7 siRNA-1 preparations; set-up: species or system Mice (Balb/c); settings: mice, intravenous, 0.03 and/or 0.3 mg/kg siRNA (f7 siRNA-1), 48 hours after administration; FIGS. 1 and 2
Method: The preparations (compositions containing compounds 1, 2, and 4 to 7, respectively, and f7 siRNA-1) obtained in Examples 21 and 22 were each subjected to an in vivo drug efficacy evaluation test by a method given below. Each preparation was used after being diluted with physiological saline according to the test.
Mice (Balb/c, obtained from CLEA Japan, Inc.) were acclimatized and raised. Then, each preparation was intravenously administered at 0.03 and/or 0.3 mg/kg in terms of the siRNA concentration to the mice. 48 hours after the administration, blood was collected, and the collected blood was centrifuged at 8000 rpm at 4° C. for 8 minutes using a high-speed refrigerated microcentrifuge (TOMY MX305; manufactured by Tomy Seiko Co., Ltd.). Absorbance in standard solutions and the plasma samples was measured in ARVO (405 nm) using BIOPHEN VII kit (manufactured by ANIARA, cat#: A221304) according to the method described in the instruction manual of the product. A calibration curve was prepared from the obtained absorbance, and the factor VII protein concentration in plasma was calculated. n=3 for each group.

[1] = Average particle size of the preparations, measured with a particle size measurement apparatus; assay type: physicochemical; settings: preparations of Examples 21 and 22 (composition containing the compound and f7 siRNA-1)
From the text: Each sample was weighed to be compound 1/PEG-DMPE Na (manufactured by NOF Corp.)=57.3/5.52 mmol/L, and suspended in an aqueous solution containing hydrochloric acid and ethanol. A homogenous suspension was obtained by repeating stirring with a vortex stirring mixer and heating. This suspension was passed through a 0.05-μm polycarbonate membrane filter at room temperature to obtain a dispersion of compound 1/PEG-DMPE Na particles (liposomes). The average particle size of the obtained liposomes was measured with a particle size measurement apparatus to confirm that the average particle size fell within the range of 30 nm to 100 nm. The obtained liposome dispersion and the f7 siRNA-1 solution were mixed at a ratio of liposome dispersion:f7 siRNA-1 solution=3:1. A 3-fold amount of distilled water was further added thereto and mixed to prepare a compound 1/PEG-DMPE Na/f7 siRNA-1 complex dispersion.
The average particle sizes of the preparations (compositions) obtained in Examples 21 and 22 were measured using a particle size measurement apparatus.
The average particle sizes of the preparations (compositions) obtained in Example 23 and Comparative Example 1 were measured using a particle size measurement apparatus.

Row | Compound | expression of the factor VII gene (factor VII protein concentration in plasma) (factor VII gene) | Particle size of obtained preparation (nm) [1] [nm]
1 | CCCCC/C=C\C/C=C\CCCCCCCCC1(CCCCCCCC/C=C\C/C=C\CCCCC)CN(C)C1 [Compound 1, 1-Methyl-3,3-bis[(9Z,12Z)-octadeca-9,12-dien-1-yl]azetidine] | strongly suppressed | 113
2 | CCCCC/C=C\C/C=C\CCCCCCCCC1(CCCCCCCC/C=C\C/C=C\CCCCC)CN(CCC)C1 [Compound 2, 3,3-Bis[(9Z,12Z)-octadeca-9,12-dien-1-yl]-1-propylazetidine] | strongly suppressed | 116
3 | CCCCC/C=C\C/C=C\CCCCCCCCC1(CCCCCCCC/C=C\C/C=C\CCCCC)CN(C(=O)OCCCN(C)C)C1 [Compound 4, 3-(Dimethylamino)propyl 3,3-bis[(9Z,12Z)-octadeca-9,12-dien-1-yl]azetidine-1-carboxylate] | – | 127
4 | CCCCCCCC/C=C\CCCCCCCCC1(CCCCCCCC/C=C\CCCCCCCC)CN(C)C1 [Compound 5, 1-Methyl-3,3-bis[(Z)-octadec-9-en-1-yl]azetidine] | – | 115
5 | CCCCCC/C=C\CCCCCCCCC1(CCCCCCCC/C=C\CCCCCC)CN(C)C1 [Compound 6, 3,3-Bis[(Z)-hexadec-9-en-1-yl]-1-methylazetidine] | – | 123
6 | CCCCC/C=C\C/C=C\CCCCCCCCCCC1(CCCCCCCCCC/C=C\C/C=C\CCCCC)CN(C)C1 [Compound 7, 3,3-Bis[(11Z,14Z)-icosa-11,14-dien-1-yl]-1-methylazetidine] | – | 128
